Results reported in patent US8877452B2, “Nitrite-reductase (NIRB) as potential anti-tubercular target and a method to detect the severity of tuberculosis disease” (priority 2013, dated 2014).
Like-named read-outs stand apart in the source and are kept apart here.

How the values were obtained:
[1] = tested on: Mycobacterium tuberculosis in THP-1 macrophage; format: cell-based
[2] = tested on: THP-1 macrophages; assay: Cytotoxic effect on THP-1 macrophages, DAPI fluorescence microscopy; format: cell-based, Human; details: 100 μM; 10 days of treatment; compared with untreated control
Description: The THP1 macrophages were treated with 100 μM of p-HMB (Inhibitor) and incubated for 10 days and then stained with DAPI dye before taking pictures under a fluorescent microscope. The control cells were treated with the vehicle only under identical conditions.
THP-1 macrophage cells were grown on cover slip in 8 well microplates and washed twice with chilled methanol followed by staining with 4′,6-diamidino-2-phenylindole (DAPI) at final concentration of 300 nM. Macrophage cells were kept for 15 min at room temperature under dark condition. After incubation, cells were washed three times with distilled water and analyzed under the fluorescence microscope (Leitz Wetzlar model, Germany) at 350 nm excitation and 450 nm emission wavelengths (400×) using ‘A’ filter.
To investigate the host THP-1 macrophage cells condition due to its exposure to p-HMB inhibitor before considering its effective and specific inhibition of bacilli in macrophage infection models, fluorescence microscopic picture of THP-1 cells treated with p-HMB (100 μM) was compared with the untreated control after staining with DAPI (4′,6-diamidino-2-phenylindole). Fluorescence images were taken after 10th day of inhibitor treatment.

[3] = tested on: Mycobacterium tuberculosis

Compound: [N-]=[N+]=[N-] [Azide]
- decrease in intracellular viable bacilli count compared to control (without inhibitor) [1]: ~1.5 log difference

Compound: CS(=N)(=O)CC[C@H](N)C(=O)O (stereo partly drawn) [L-MSO, L-methionine sulfoximine]
- decrease in intracellular viable bacilli count compared to control (without inhibitor) [1]: ~2.5 log difference

Compound: O=C(O)c1cc[c]([Hg][OH])cc1 [p-HMB, para-hydroxy mercuric benzoate]
- decrease in intracellular viable bacilli count compared to control (without inhibitor) ([1]; […], cell count on 10th day PI, THP-1 macrophages): ~2 log difference
- reduction of bacilli count ([1]; in-vitro and ex-vivo conditions (summary statement)): ~2 log cfu
- cytotoxic effect on macrophage (nuclear integrity, DAPI staining) [2]: without exhibiting any cytotoxic effects
- cell count reduction compared to bacilli grown under ammonia [3]: ~2.5 log difference
